In publication PMC6199744, “Development of Chemical Proteomics for the Folateome and Analysis of the Kinetoplastid Folateome” (ACS Infectious Diseases, 2018):
Several values for one entry are separate records, joined by “and”; a condition that tells them apart may be missing. Identical values can stand only once. Like-named read-outs stand apart in the source and are kept apart here.

Test system: L. major lysate proteins
Experiment: Multitargeted bead mixture chemoproteomics, single concentration competition, proteome-wide
Format: binding
Conditions: for fold change / fold change relative to vehicle control: vehicle control = 1; for fold change relative to vehicle control: competition with free ligand

For `CCCCCCOc1ccc(Cc2cnc(N)nc2N)cc1` [compound 1], the “fold change vs vehicle control” value was 0.96 and 1.16 and 1.02 and 0.84, the fold change (LINJ.05.0500 ATPASE ALPHA SUBUNIT) was 1.04 and the fold change (LINJ.36.4570 PROTEASOME REGULATORY ATPASE SUBUNIT) was 0.72. It also gave a fold change (LMJF.10.0510 GLYCEROL-3-PHOSPHATE DEHYDROGENASE NAD ], GLYCOSOMAL) of 0.92, a fold change (LMJF.16.1610 PROHIBITIN) of 1.18 and a fold change (LMJF.18.1370 HEAT SHOCK PROTEIN, PUTATIVE) of 0.95. The fold change (LMJF.19.0300 RNA BINDING PROTEIN, PUTATIVE) was 0.89, the fold change (LMJF.21.0760 […]-ATP-ASE SUBUNIT 5, PUTATIVE) was 0.7 and the fold change (LMJF.22.0410 HYPOTHETICAL PROTEIN, CONSERVED) was 0.84. For the same compound, the fold change (LMJF.25.1770 ENOYL-COA REDUCTASE, PUTATIVE) was 0.98, the fold change (LMJF.26.0300 AMINOPEPTIDASE-LIKE PROTEIN) was 0.77 and the fold change (LMJF.26.2560 HYPOTHETICAL PROTEIN, CONSERVED) was 0.82. For the same compound, the fold change (LMJF.27.1810 GLYCOSOMAL PHOSPHOENOLPYRUVATE CARBOXYKINASE, PUTATIVE) was 1.05, the fold change (LMJF.28.0490 PROPIONYL-COA CARBOXYLASE BETA CHAIN, PUTATIVE) was 0.7 and the fold change (LMJF.29.0940 HY[…], CONSERVED) was 1.06. For the same compound, the fold change (LMJF.29.1310 CARNITINE/CHOLINE ACETYLTRANSFERASE, PUTATIVE) was 0.99, the fold change (LMJF.29.1470 HYPOTHETICAL PROTEIN, CONSERVED) was 0.73 and the fold change (LMJF.29.2440 HYPOTHETICAL PROTEIN, CONSERVED) was 0.88. For the same compound, the fold change (LMJF.30.2350 SPHINGOSINE 1-PHOSPHATE LYASE) was 1.13, the fold change (LMJF.30.2970 GLYCERALDEHYDE 3-PHOSPHATE DEHYDROGENASE, GLYCOSOMAL) was 1.09 and the fold change (LMJF.30.3390 CAS/CSE/IMPORTIN DOMAIN PROTEIN, PUTATIVE) was 0.85. The fold change (LMJF.31.2650 ACETOIN DEHYDROGENASE E3 COMPONENT-LIKE PROTEIN) was 0.92, the fold change (LMJF.31.2970 ACETYL-COA CARBOXYLASE, PUTATIVE) was 0.96 and the fold change (LMJF.33.1030 HYPOTHETICAL PROTEIN, CONSERVED) was 0.85. It also gave a fold change (LMJF.33.1930 PHOSPHORIBOSYLPYROPHOSPHATE SYNTHETASE, PUTATIVE) of 0.91, a fold change (LMJF.35.5040 polyadenylate-binding protein 1) of 0.93 and a fold change (LMJF.35.5250 ALPHA-1,2-MANNOSYLTRANSFERASE, PUTATIVE) of 0.88. For the same compound, the fold change (LMJF.36.5100 HYPOTHETICAL PROTEIN, CONSERVED) was 0.89, the fold change (LMJF.[…] RIBOSOMAL PROTEIN S7, PUTATIVE) was 1.43 and the “fold change vs vehicle control” value (protein LINJ.03.0940 HY[…], CONSERVED) was 1.24. For the same compound, the “fold change vs vehicle control” value (protein LINJ.09.0030 HYPOTHETICAL PROTEIN, CONSERVED) was 0.98, the “fold change relative to vehicle control” value (protein LINJ.11.0780 40S RIBOSOMAL PROTEIN S21, PUTATIVE) was 1.29 and the fold change (protein LINJ.13.0990 PROTEASOME REGULATORY ATPASE SUBUNIT 2, PUTATIVE) was 0.79. The “fold change vs vehicle control” value (protein LINJ.13.1460 ALPHA TUBULIN) was 1, the fold change (protein LINJ.15.0090 HEAT SHOCK PROTEIN HSLVU, ATPASE SUBUNIT HSLU, PUTATIVE) was 0.97 and the “fold change relative to vehicle control” value (protein LINJ.16.1380 […], PUTATIVE) was 1.55. For the same compound, the “fold change vs vehicle control” value (protein LINJ.19.0300 RNA BINDING PROTEIN) was 1.16, the “fold change relative to vehicle control” value (protein LINJ.20.1390 COATOMER BETA SUBUNIT, PUTATIVE) was 1.01 and the “fold change vs vehicle control” value (protein LINJ.21.1310 40S RIBOSOMAL PROTEIN S23, PUTATIVE) was 1.08. For the same compound, the “fold change vs vehicle control” value (protein LINJ.23.1680 HYPOTHETICAL PROTEIN, CONSERVED) was 0.98, the “fold change vs vehicle control” value (protein LINJ.25.1170 […] OXIDASE VII, PUTATIVE) was 1.03 and the “fold change relative to vehicle control” value (protein LINJ.25.1220 RIBOSOMAL PROTEIN S25) was 1.36. The “fold change vs vehicle control” value (protein LINJ.26.1080 HY[…], CONSERVED) was 1.09, the “fold change vs vehicle control” value (protein LINJ.27.1140 HYPOTHETICAL PROTEIN, CONSERVED) was 0.97 and the “fold change vs vehicle control” value (protein LINJ.28.1100 RIBOSOMAL PROTEIN S20, PUTATIVE) was 1. For the same compound, the “fold change relative to vehicle control” value (protein LINJ.28.1940 REPLICATION FACTOR A, 51KDA SUBUNIT, PUTATIVE) was 1.2, the fold change (protein LINJ.31.2350 ADP-RI[…], PUTATIVE) was 1.13 and the “fold change vs vehicle control” value (protein LINJ.34.0670 PROTEASOME REGULATORY NON-ATP-ASE SUBUNIT 11, PUTATIVE) was 0.97. The fold change (protein LINJ.35.0410 40S RIBOSOMAL PROTEIN S3A, PUTATIVE) was 1.07, the “fold change relative to vehicle control” value (protein LINJ.35.0780 CBS DOMAIN PROTEIN, CONSERVED) was 1.21 and the “fold change vs vehicle control” value (protein LINJ.36.0510 HY[…], CONSERVED) was 1.03. The “fold change vs vehicle control” value (protein LINJ.36.3940 40S RIBOSOMAL PROTEIN S27-1, PUTATIVE) was 0.91, the fold change (protein LINJ.36.4180 HS1VU COMPLEX PROTEOLYTIC SUBUNIT-LIKE) was 0.81 and the fold change (protein LINJ.36.7350 CYTOCHROME C OXIDASE SUBUNIT I) was 0.96. The fold change (protein LMJF.01.0520 LONG-CHAIN-FATTY-ACID-COA LIGASE, PUTATIVE) was 0.59, the “fold change vs vehicle control” value (protein LMJF.02.0460 HYPOTHETICAL PROTEIN, CONSERVED) was 0.96 and the “fold change vs vehicle control” value (protein LMJF.03.0230 LONG CHAIN FATTY ACYL COA SYNTHETASE, PUTATIVE) was 1.11. For the same compound, the “fold change vs vehicle control” value (protein LMJF.03.0630 HYPOTHETICAL PROTEIN, CONSERVED) was 0.95, the fold change (protein LMJF.05.0780 HY[…], CONSERVED) was 1.17 and the fold change (protein LMJF.06.0010 HISTONE H4) was 1.14. For the same compound, the fold change (protein LMJF.06.0140 PROTEASOME BETA 6 SUBUNIT, PUTATIVE) was 0.8, the fold change (protein LMJF.06.0650 LANOSTEROL SYNTHASE, PUTATIVE) was 0.88 and the “fold change vs vehicle control” value (protein LMJF.08.0510 RIBOSE-PHOSPHATE PYROPHOSPHOKINASE, PUTATIVE) was 1.04. The “fold change vs vehicle control” value (protein LMJF.08.0550 TRANSLATION INITIATION FACTOR-LIKE PROTEIN) was 1.1, the “fold change vs vehicle control” value (protein LMJF.08.1100 HY[…], CONSERVED) was 1.01 and the “fold change relative to vehicle control” value (protein LMJF.09.1120 MIT[…] BINDING PROTEIN 2,MRP2, GBP25) was 1.17. For the same compound, the “fold change vs vehicle control” value (protein LMJF.09.1260 HY[…], CONSERVED) was 1.16, the fold change (protein LMJF.10.1010 NUCLEOSIDE PHOSPHORYLASE-LIKE PROTEIN) was 0.72 and the fold change (protein LMJF.10.1240 HYPOTHETICAL PROTEIN, CONSERVED) was 0.8. For the same compound, the “fold change vs vehicle control” value (protein LMJF.11.0130 NGG1 I[…] 3-LIKE PROTEIN) was 0.99, the “fold change vs vehicle control” value (protein LMJF.11.0240 […] 7 SUBUNIT, PUTATIVE) was 1.03 and the fold change (protein LMJF.11.1050 PRETRA[…], ALPHA SUBUNIT, PUTATIVE) was 1.11. For the same compound, the “fold change vs vehicle control” value (protein LMJF.11.1110 60S RIBOSOMAL PROTEIN L28, PUTATIVE) was 1.29, the “fold change vs vehicle control” value (protein LMJF.12.0210 […] […]1L8 3, PUTATIVE) was 1.04 and the “fold change vs vehicle control” value (protein LMJF.12.0280 ORNITHINE DECARBOXYLASE, PUTATIVE) was 0.98. For the same compound, the “fold change vs vehicle control” value (protein LMJF.13.0450 HYPOTHETICAL PROTEIN, CONSERVED) was 0.99, the “fold change vs vehicle control” value (protein LMJF.13.0870 MITOCHONDRIAL PROCESSING PEPTIDASE ALPHA SUBUNIT, PUTATIVE) was 0.94 and the “fold change vs vehicle control” value (protein LMJF.14.0130 INOSINE-GUANINE NUCLEOSIDE HYDROLASE, PUTATIVE) was 0.91. The fold change (protein LMJF.14.0310 […] 3 SUBUNIT, PUTATIVE) was 1.01, the fold change (protein LMJF.14.0650 FATTY ACID ELONGASE, PUTATIVE) was 0.96 and the fold change (protein LMJF.14.0660 FATTY ACID ELONGASE, PUTATIVE) was 1.11. The fold change (protein LMJF.14.0705 FATTY ACID ELONGASE, PUTATIVE) was 1.02, the fold change (protein LMJF.14.0740 FATTY ACID ELONGASE, PUTATIVE) was 1.2 and the “fold change relative to vehicle control” value (protein LMJF.14.1120 KINESIN K39, PUTATIVE) was 1.45. The “fold change vs vehicle control” value (protein LMJF.15.0230 LYSYL-TRNA SYNTHETASE, PUTATIVE) was 1.07, the “fold change vs vehicle control” value (protein LMJF.15.0280 RIBONUCLEOPROTEIN P18, MIT[…], PUTATIVE) was 1.04 and the fold change (protein LMJF.15.1010 GLUTAMATE DEHYDROGENASE) was 1.09. The “fold change relative to vehicle control” value (protein LMJF.16.0520 HYPOTHETICAL PROTEIN, CONSERVED) was 2.54, the fold change (protein LMJF.16.0540 ASPARTATE CARBAMOYLTRANSFERASE, PUTATIVE) was 0.89 and the “fold change vs vehicle control” value (protein LMJF.16.0950 SUCROSE-PHOSPHATE SYNTHASE-LIKE PROTEIN) was 0.99. The “fold change vs vehicle control” value (protein LMJF.16.0960 HYPOTHETICAL PROTEIN, CONSERVED) was 0.44, the fold change (protein LMJF.16.1180 COATOMER DELTA SUBUNIT-LIKE PROTEIN) was 0.87 and the fold change (protein LMJF.17.0010 HYPOTHETICAL PROTEIN, CONSERVED) was 0.88. The “fold change vs vehicle control” value (protein LMJF.18.0510 ACONITASE, PUTATIVE) was 0.98, the “fold change vs vehicle control” value (protein LMJF.18.0890 RAB7 GTP BINDING PROTEIN, PUTATIVE) was 0.94 and the fold change (protein LMJF.18.1130 RAS-RELATED PROTEIN RAB-5, PUTATIVE) was 0.85. For the same compound, the fold change (protein LMJF.19.1120 PROTEASOME REGULATORY NON-ATP-ASE SUBUNIT, PUTATIVE) was 0.9, the “fold change vs vehicle control” value (protein LMJF.19.1160 HYPOTHETICAL PROTEIN, CONSERVED) was 0.83 and the “fold change vs vehicle control” value (protein LMJF.19.1530 PEPTIDYLPROLYL ISOMERASE-LIKE PROTEIN) was 0.94. The fold change (protein LMJF.20.0100 PHOSPH[…] C, GLYCOSOMAL) was 1.04, the “fold change vs vehicle control” value (protein LMJF.21.0720 HY[…], CONSERVED) was 1.05 and the fold change (protein LMJF.21.1250 ADENYLATE KINASE, PUTATIVE) was 0.98. For the same compound, the fold change (protein LMJF.21.1555 HY[…], CONSERVED) was 1.01, the fold change (protein LMJF.21.1580 HY[…], UNKNOWN FUNCTION) was 1.03 and the “fold change vs vehicle control” value (protein LMJF.21.1700 […] 2 SUBUNIT, PUTATIVE) was 0.89. The fold change (protein LMJF.22.0230 AMINO ACID PERMEASE, PUTATIVE) was 1.2 and the “fold change vs vehicle control” value (protein LMJF.22.0730 HYPOTHETICAL PROTEIN, CONSERVED) was 1.
